Values quoted from earlier work, collected in patent EP3045477B1, “Method for reducing the migration of photoinitiators and their degradation products in UV curable coatings” (IOT - Innovative Oberflächentechnologien GmbH, priority 2015, dated 2016).

Details: listed limit, Verordnung (EU) 10/2011

Cc1cc(C(C)(C)C)c(O)c(C(C)(C)C)c1 [Butylhydroxy toluol, Butylhydroxytoluol]
spezifische Migrationslimit: 3 mg/kg
